# Patent US20260345603A1, “PRMT5 INHIBITORS” (Beijing Earthwise Technology Co., Ltd., priority 2022, published 2026)
# Test system: HCT116^MTAP Deletion cells
# Experiment: Anti-proliferation assay on cells (CTG, 10 days), HCT116 MTAP Deletion
# Format: cell-based
# Conditions: Homo sapiens, HCT-116, 240 h, anti-proliferative activity, HCT116 MTAP Deletion, 10 days, class symbols; read-out: HCT116^MTAP Deletion GI50
# Description: HCT116^MTAD Deletion cells were from Pharmaron (China); HCT116 cells were from ATCC; McCoy's 5A medium was purchased from Invitrogen (USA); penicillin-streptomycin and fetal bovine serum were purchased from Gibco (USA); a 384-well plate was purchased from PerkinElmer (USA); and Cell-Titer Glo reagent was purchased from Promega (USA).
# Compound dissolution: All the compounds were dissolved in dimethyl sulfoxide (DMSO) and then stored. The compounds were stored at room temperature in a dry condition for 3 months for short term storage or at −20 °C for long term storage.
# The cells were cultured strictly in accordance with ATCC requirements. The cell culture medium (McCoy's 5A medium+10% fetal bovine serum+1% penicillin+streptomycin) was transferred to a 15 mL centrifuge tube and centrifuged at 1000 rpm for 5 min. The supernatant was removed. The cells were resuspended with complete culture medium, inoculated into a culture dish at the required density, and cultured in an incubator at 37 °C, 95% humid air, and 5% carbon dioxide. The culture medium was replenished or the cells were passaged every 2-3 days depending on the cell growth condition.
# When the confluency of cells in the culture dish reached about 90%, the cells were washed twice with PBS, and then treated with trypsin to become single cells. The cells were counted, and 40 μl of the cells was inoculated into each well of a 384-well plate (50 cells/well). The plate was equilibrated at 37 °C and 5% carbon dioxide for 10 to 15 minutes. The compounds were injected into the 384-well plate using Echo550, and positive control and negative control (0.1% DMSO) were set up. Each compound was subjected to a 3-fold dilution, resulting in 10 concentration gradients, in duplicate, and the content of DMSO was 0.1%. The 384-well plate was incubated in a cell culture incubator for 10 days.
# Then, 40 μl of cell proliferation assay reagent (CTG) was added to the 384-well plate, and the plate was shaken to mix well. Then, the 384-well plate was incubated at 37 °C and 5% carbon dioxide in the dark for 30 minutes. The data were read using the Envision multifunctional microplate reader. […] According to the different drug concentrations and their corresponding inhibition rates, the GI50 curve was drawn using GraphPad 8.0 software. The data were analyzed, and the final GI50 value was obtained.
row,Structure (SMILES),GI50 [nM]
1,Cc1cc(NC(=O)C(=O)N(Cc2ccc(C#N)cn2)[C@H](C)c2ncccn2)cnc1N [Example 28],1000 to 10000
2,CN(C(=O)C(=O)Nc1cnc(N)c2c1cnn2C)C1COc2cc(-c3cnn(C(F)(F)F)c3)ccc21 (stereo not drawn) [Example 213],≤ 10
3,"CCC(C)N(Cc1ccc(C(F)(F)F)cn1)C(=O)C(=O)Nc1cnc(N)c(C)c1 (single isomer, unassigned) [Example 45-P1]",10 to 100
4,CCc1cc(NC(=O)C(=O)N(Cc2ccc(C(F)(F)F)cn2)[C@H](C)c2ncccn2)cnc1N [Example 21],100 to 1000
5,C[C@H](c1ncccn1)N(Cc1ccc(C(F)(F)F)cn1)C(=O)C(=O)Nc1cnc(N)c2ccncc12 [Example 32],100 to 1000
6,CN(C(=O)C(=O)Nc1cnc(N)c2c1cnn2C)C1COc2cc(-c3cnc(C4CC4)s3)ccc21 (stereo not drawn) [Example 236],≤ 10
7,C[C@H](c1ncccn1)N(Cc1ccc(C(F)(F)F)cn1)C(=O)C(=O)Nc1cnc(N)c2c1CCCC2 [Example 31],100 to 1000
8,CCC(C)N(Cc1ccc(C(F)(F)F)cn1)C(=O)C(=O)Nc1cnc(N)c2c1cnn2C (racemic) [Example 46-P1],10 to 100
9,"Cc1cc(NC(=O)C(=O)N(Cc2ccc(C(F)(F)F)cn2)C(C)c2cscn2)cnc1N (single isomer, unassigned) [Example 19-P1]",10 to 100
10,COC[C@H](C)N(Cc1ccc(C(F)(F)F)cn1)C(=O)C(=O)Nc1cnc(N)c(C)c1 [Example 9],10 to 100
11,Cc1ncc(-c2ccc3c(c2)COCC3N(C)C(=O)C(=O)Nc2cnc(N)c3c2cnn3C)s1 (racemic) [Compound 181],≤ 10
12,C[C@H](c1ncccn1)N(Cc1ccc(C(F)(F)F)cn1)C(=O)C(=O)Nc1cnc(N)c(Cl)c1 [Example 23],1000 to 10000
13,CN(C(=O)C(=O)Nc1cnc(N)c2c1cnn2C)C1COCc2cc(Cl)c(Cl)cc21 (stereo not drawn) [Example 163],≤ 10
14,CN(C(=O)C(=O)Nc1cnc(N)c2c1cnn2C)C1COc2cc(Br)ccc21 (racemic) [Compound 180],≤ 10
15,C[C@H](c1ncccn1)N(Cc1ccc(C(F)(F)F)cn1)C(=O)C(=O)Nc1cnc(N)c2c1COC2 [Example 2],10 to 100
16,Cn1ncc2c(NC(=O)C(=O)N(Cc3ccc(C(F)(F)F)cn3)CC3CC3)cnc(N)c21 [Example 43],≤ 10
17,Cc1cc(/C=C/C(=O)N(Cc2ccc(C(F)(F)F)cn2)[C@H](C)c2ncccn2)cnc1N [Example 6],> 10000
18,CCC(C)N(Cc1cnn(C)c1)C(=O)C(=O)Nc1cnc(N)c(C)c1 (stereo not drawn) [Example 73],> 10000
19,Cc1cc(NC(=O)C(=O)N(Cc2ccc(C(F)(F)F)cn2)CC2CCC2)cnc1N [Example 16],10 to 100
20,Cc1ccc2c(c1)OCC2N(C)C(=O)C(=O)Nc1cnc(N)c2c1cnn2C (stereo not drawn) [Example 233],10 to 100
21,Nc1ncc(NC(=O)C(=O)N(Cc2ccc(C(F)(F)F)cn2)CC2CCC2)c2c1COC2 [Example 41],100 to 1000

row,Structure (SMILES),GI50 [nM]
1,CN(C(=O)C(=O)Nc1cnc(N)c2c1cnn2C)C1COCc2c1ccc(Cl)c2Cl (racemic) [Compound 168],≤ 10
2,CN(C(=O)C(=O)Nc1cnc(N)c2c1cnn2C)C1COc2cc(-c3cnn(C4CC4)c3)ccc21 (stereo not drawn) [Example 211],≤ 10
3,CN(C(=O)C(=O)Nc1cnc(N)c2c1cnn2C)C1COCc2cc(C3=CCOCC3)ccc21 (stereo not drawn) [Example 100],≤ 10
4,CN(C(=O)C(=O)Nc1cnc(N)c2c1cnn2C)C1COCc2cc(-c3ccnn3C3CC3)ccc21 (racemic) [Compound 241],≤ 10
5,CN(C(=O)C(=O)Nc1cnc(N)c2c1cnn2C)C1COc2cc(-c3ccnn3C)ccc21 (racemic) [Compound 192],≤ 10
6,C[C@H](C1CC1)N(Cc1ccc(C(F)(F)F)cn1)C(=O)C(=O)Nc1cnc(N)c2c1COC2 [Example 39],100 to 1000
7,CN(C(=O)C(=O)Nc1cnc(N)c2c1cnn2C)C1COCc2cc(C3=CCC(F)(F)CC3)ccc21 (stereo not drawn) [Example 157],≤ 10
8,Cc1cc(NC(=O)C(=O)N(Cc2ccc(C(F)(F)F)cn2)CC(C)C)cnc1N [Example 37],10 to 100
9,CN(C(=O)C(=O)Nc1cnc(N)c2c1cnn2C)C1COc2cc(Cl)c(Cl)cc21 (racemic) [Compound 186],≤ 10
10,CN(C(=O)C(=O)Nc1cnc(N)c2c1cnn2C)C1COCc2cc(-c3ccnn3C)ccc21 (racemic) [Compound 156],≤ 10
11,Cc1cc(C2CC2C(=O)N(Cc2ccc(C(F)(F)F)cn2)[C@H](C)c2ncccn2)cnc1N (stereo partly drawn) [Example 7],> 10000
12,CN(C(=O)C(=O)Nc1cnc(N)c2c1cnn2C)C1COCc2cc(-c3cnn(C(F)(F)F)c3)ccc21 (racemic) [Compound 231],≤ 10
13,CCC(C)N(Cc1ccc(C(F)(F)F)cn1)C(=O)C(=O)Nc1cnc(N)c(C)c1 (stereo not drawn) [Example 8],10 to 100
14,C[C@H](c1ncccn1)N(Cc1ccc(C(F)(F)F)cn1)C(=O)C(=O)Nc1cnc(N)c(Br)c1 [Example 24],100 to 1000
15,Cc1cc(NC(=O)C(=O)N(Cc2ccc(C(F)(F)F)cn2)CC2CC2)cnc1N [Example 15],10 to 100
16,Cc1cc(NC(=O)C(=O)N(Cc2ccc(C(F)(F)F)cn2)[C@H](C)C2CC2)cnc1N [Example 36],10 to 100
17,Cc1cc(NC(=O)C(=O)N(Cc2ccc(N3CCC(F)(F)C3)cn2)[C@H](C)c2ncccn2)cnc1N [Example 29],100 to 1000
18,[2H]C([2H])([2H])N(C(=O)C(=O)Nc1cnc(N)c2c1cnn2C)C1COCc2cc(C(F)(F)F)ccc21 (stereo not drawn) [Example 109],≤ 10
19,Cc1cc(NC(=O)C(=O)N(Cc2ccc(C(F)(F)F)cn2)c2cnn(C)c2)cnc1N [Example 18],100 to 1000
20,Cn1ncc2c(NC(=O)C(=O)N(Cc3ccc(C(F)(F)F)cn3)CC3CCC3)cnc(N)c21 [Example 4],10 to 100
21,Cc1cc(NC(=O)C(=O)N(C)Cc2ccc(C(F)(F)F)cn2)cnc1N [Example 3],1000 to 10000

row,Structure (SMILES),GI50 [nM]
1,"Cc1cc(NC(=O)C(=O)N(Cc2ccc(C(F)(F)F)cn2)C2CCCOC2)cnc1N (single isomer, unassigned) [Example 14-P1]",100 to 1000
2,Cc1cc(NC(=O)C(=O)N(Cc2ccc(C(F)(F)F)cn2)C2CCC2)cnc1N [Example 13],100 to 1000
3,Cc1cc(NC(=O)C(=O)N(Cc2ccc(C3=CCOCC3)nn2)[C@H](C)c2ncccn2)cnc1N [Example 42],100 to 1000
4,CN(C(=O)C(=O)Nc1cnc(N)c2c1cnn2C)C1COCc2cc(-c3ccnn3C)ccc21 (stereo not drawn) [Example 137],≤ 10
5,Nc1ncc(NC(=O)C(=O)N(Cc2ccc(C(F)(F)F)cn2)CC2CC2)c2c1COC2 [Example 40],100 to 1000
6,CN(C(=O)C(=O)Nc1cnc(N)c2c1cnn2C)C1COc2cc(-c3ccnn3C3CC3)ccc21 (stereo not drawn) [Example 212],≤ 10
7,C[C@H](c1ncccn1)N(Cc1ccc(C(F)(F)F)cn1)C(=O)C(=O)Nc1cnc(N)c2c1cnn2C [Example 30],10 to 100
8,CN(C(=O)C(=O)Nc1cnc(N)c2c1cnn2C)C1COCc2cc(-c3cnn(C)c3)ccc21 (stereo not drawn) [Example 99],≤ 10
9,[2H]C([2H])([2H])n1ncc2c(NC(=O)C(=O)N(C)C3COc4cc(C(F)(F)F)ccc43)cnc(N)c21 (stereo not drawn) [Example 173],10 to 100
10,Cc1cc(NC(=O)C(=O)N(Cc2ccc(C(F)(F)F)cn2)CC2CCCC2)cnc1N [Example 17],10 to 100
11,CCC(C)N(Cc1ccc(C(F)(F)F)cn1)C(=O)C(=O)Nc1cnc(N)c2c1COC2C (stereo not drawn) [Example 10],10 to 100
12,Cc1cc(NC(=O)C(=O)N(Cc2ccc(C(F)(F)F)cn2)C2CCCC2)cnc1N [Example 11],100 to 1000
13,CN(C(=O)C(=O)Nc1cnc(N)c2c1cnn2C)C1COc2cc(-c3ccnn3C)ccc21 (stereo not drawn) [Example 161],≤ 10
14,CCC(C)N(Cc1ccc(OCC(F)(F)F)nn1)C(=O)C(=O)Nc1cnc(N)c(C)c1 (stereo not drawn) [Example 63],100 to 1000
15,Cc1cc(NC(=O)C(=O)N(Cc2ccc(C(F)(F)F)cn2)C2CC2)cnc1N [Example 12],100 to 1000
16,C[C@H](c1ncccn1)N(Cc1ccc(C(F)(F)F)cn1)C(=O)C(=O)Nc1cnc(N)c(F)c1 [Example 22],1000 to 10000
17,CN(C(=O)C(=O)Nc1cnc(N)c2c1cnn2C)C1COCc2cc(-c3cnn(C4CC4)c3)ccc21 (racemic) [Compound 223],≤ 10
18,Cc1ncc(-c2ccc3c(n2)COCC3N(C)C(=O)C(=O)Nc2cnc(N)c3c2cnn3C)s1 (racemic) [Compound 209],≤ 10
19,CN(C(=O)C(=O)Nc1cnc(N)c2c1cnn2C)C1COCc2cc(Br)ccc21 (stereo not drawn) [Example 94],≤ 10

# Same assay, conditions: anti-proliferative activity, HCT116 MTAP Deletion, 10 days, class symbols; read-out: HCT116^MTAP Deletion GI50
row,Structure (SMILES),GI50 [nM]
1,CCC(C)N(Cc1ccc(C(F)(F)F)cn1)C(=O)C(=O)Nc1cnc(N)c2c1cnn2C (stereo not drawn) [Example 52],≤ 10
2,"CN(C(=O)C(=O)Nc1cnc(N)c2c1cnn2C)C1COc2cc(C(F)(F)F)ccc21 (single isomer, unassigned) [Example 112-P2]",10 to 100
